Measured values: patent US10793559B2, “Chemical compounds” (GlaxoSmithKline Intellectual Property Development Limited, priority 2016, dated 2020)
Several values for one entry are separate records, joined by “and”; a condition that tells them apart may be missing. Equal entries are not always repeated. Structures can show the parent of a compound that is named as a salt.

Biological target: PI3K-Delta (Homo sapiens, UniProt O00329)
Test: PI3K HTRF assay (PI3K Delta)
Type: biochemical
Settings: PI3K-Delta 1.5 nM, 80 μM ATP, 10 μM PIP2 final, read-out: mean pIC50 in the PI3K Delta assay (converted)
Description: Biological Data PI3K HTRF Assay
The binding of compounds to PI3K-alpha/beta/delta/gamma is determined by homogeneous time resolved fluorescence (HTRF) assays as follows;
Briefly, solid compound is dissolved in 100% DMSO at a concentration of 2 mM. Dilutions are prepared in 100% DMSO using a 1 in 4 serial step dilution. The dilutions are transferred to black low volume Greiner assay plates ensuring that the DMSO concentration is constant across the plate at 1% (0.1 ul/well).
PI3K Reaction Buffer (contains 50 mM HEPES pH7.0 (NaOH), 150 mM NaCl, 10 mM MgCl2, 2.3 mM sodium cholate, 10 μM CHAPS made up in milliQ water). Fresh DTT is added at a final concentration of 1 mM on the day of use. Wortmannin at a concentration sufficient to produce 100% inhibition (8.33e-6 M) is added to column 18 of compound plates.
Enzyme solutions: 1× PI3K assay Buffer containing: • 550 pM PI3K-Alpha enzyme (275 pM final assay concentration) • 800 pM PI3K-Beta enzyme (400 pM final assay concentration) • 3 nM PI3K-Delta enzyme (1.5 nM final assay concentration) • 10 nM PI3K-Gamma enzyme (5 nM final assay concentration)
These concentrations are optimal to achieve a signal:background of between 1.5-4.5. The enzyme solution is added to columns 1-24 (3 ul/well) and plates are incubated for 15 minutes at room temperature.
Substrate solution: 1× PI3K assay buffer containing: • PI3K-Alpha: 500 μM ATP, 20 μM PIP2 and 120 nM biotin-PIP3. (Final assay concentrations are 250 μM ATP, 10 μM PIP2 (both at Km) and 40 nM biotin-PIP3) • PI3K-Beta: 800 μM ATP, 20 μM PIP2 and 120 nM biotin-PIP3. (Final assay concentrations are 400 μM ATP, 10 μM PIP2 (both at Km) and 40 nM biotin-PIP3) • PI3K-Delta: […], 20 μM PIP2 and 120 nM biotin-PIP3. (Final assay concentrations are 80 μM ATP, 10 μM PIP2 (both at Km) and 40 nM biotin-PIP3) • PI3K-Gamma: 30 μM ATP, 20 μM PIP2 and 120 nM biotin-PIP3.
This is added to all wells and plates are incubated for 1 hour at room temperature.
Detection solution: PI3K Detection Buffer (contains 50 mM HEPES pH7.0 (HCl), 150 mM NaCl, 2.3 mM sodium cholate, 10 μM CHAPS, 240 mM potassium fluoride) containing 2 mM DTT (2× final concentration), 90 nM GRP-1 PH domain, 300 nM Streptavidin-APC and 24 nM Europium-anti-GST (6× final concentrations)
This is mixed left at room temperature (protected from light).
STOP solution: PI3K STOP Buffer (contains 50 mM HEPES pH7.0 (HCl), 150 mM NaCl, 2.3 mM sodium cholate, 10 μM CHAPS, 150 mM EDTA).
Detection solution is diluted 1:1 with STOP solution and added to all wells (3 ul/well). Plates are covered and incubated on the bench for 45-60 minutes. Plates are read on a PerkinElmer Envision, measuring TR-FRET between the complex formed between the GST-tagged PH domain and biotinylated PIP3 which both recruit fluorophores (Europium-labelled anti-GST & Strep-APC respectively). […], this complex is disrupted by the competitive action of non-biotinylated PIP3 (formed in the assay by the phosphorylation of PIP2 by the kinase & ATP). From this, the ratio of acceptor/donor was calculated (Aex=317 nm, Aem donor=615 nm, em acceptor=665 nm) and used for data analysis.

PI3K-Delta, sequence (O00329 whole entry): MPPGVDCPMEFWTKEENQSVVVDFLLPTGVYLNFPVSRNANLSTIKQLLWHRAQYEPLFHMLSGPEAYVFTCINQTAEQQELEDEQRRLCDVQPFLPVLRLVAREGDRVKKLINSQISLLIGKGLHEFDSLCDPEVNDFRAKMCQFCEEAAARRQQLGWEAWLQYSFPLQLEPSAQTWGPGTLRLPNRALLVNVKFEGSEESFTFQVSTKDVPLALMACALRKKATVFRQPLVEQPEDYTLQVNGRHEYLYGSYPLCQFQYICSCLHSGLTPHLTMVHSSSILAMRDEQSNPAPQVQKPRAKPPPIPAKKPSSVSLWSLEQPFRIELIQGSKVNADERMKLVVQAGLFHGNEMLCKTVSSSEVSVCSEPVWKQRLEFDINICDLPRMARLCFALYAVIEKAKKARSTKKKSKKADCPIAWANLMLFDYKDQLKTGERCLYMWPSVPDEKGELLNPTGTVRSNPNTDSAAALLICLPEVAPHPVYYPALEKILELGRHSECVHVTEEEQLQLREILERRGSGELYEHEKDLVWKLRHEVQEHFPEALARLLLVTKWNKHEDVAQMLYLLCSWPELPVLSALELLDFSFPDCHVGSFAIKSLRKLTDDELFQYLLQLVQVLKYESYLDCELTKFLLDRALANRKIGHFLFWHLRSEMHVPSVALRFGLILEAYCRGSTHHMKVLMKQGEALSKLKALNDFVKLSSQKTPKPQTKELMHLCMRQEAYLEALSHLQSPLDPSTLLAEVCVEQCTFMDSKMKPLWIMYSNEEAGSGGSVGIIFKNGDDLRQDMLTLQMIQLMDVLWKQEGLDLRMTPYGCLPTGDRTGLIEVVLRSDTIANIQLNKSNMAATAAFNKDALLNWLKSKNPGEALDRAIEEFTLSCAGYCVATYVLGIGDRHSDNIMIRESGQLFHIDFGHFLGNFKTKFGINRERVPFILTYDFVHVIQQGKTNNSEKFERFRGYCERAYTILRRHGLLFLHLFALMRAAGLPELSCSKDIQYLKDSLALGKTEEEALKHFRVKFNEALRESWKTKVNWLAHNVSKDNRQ
PI3K-Delta, sequence (P27986 whole entry partner): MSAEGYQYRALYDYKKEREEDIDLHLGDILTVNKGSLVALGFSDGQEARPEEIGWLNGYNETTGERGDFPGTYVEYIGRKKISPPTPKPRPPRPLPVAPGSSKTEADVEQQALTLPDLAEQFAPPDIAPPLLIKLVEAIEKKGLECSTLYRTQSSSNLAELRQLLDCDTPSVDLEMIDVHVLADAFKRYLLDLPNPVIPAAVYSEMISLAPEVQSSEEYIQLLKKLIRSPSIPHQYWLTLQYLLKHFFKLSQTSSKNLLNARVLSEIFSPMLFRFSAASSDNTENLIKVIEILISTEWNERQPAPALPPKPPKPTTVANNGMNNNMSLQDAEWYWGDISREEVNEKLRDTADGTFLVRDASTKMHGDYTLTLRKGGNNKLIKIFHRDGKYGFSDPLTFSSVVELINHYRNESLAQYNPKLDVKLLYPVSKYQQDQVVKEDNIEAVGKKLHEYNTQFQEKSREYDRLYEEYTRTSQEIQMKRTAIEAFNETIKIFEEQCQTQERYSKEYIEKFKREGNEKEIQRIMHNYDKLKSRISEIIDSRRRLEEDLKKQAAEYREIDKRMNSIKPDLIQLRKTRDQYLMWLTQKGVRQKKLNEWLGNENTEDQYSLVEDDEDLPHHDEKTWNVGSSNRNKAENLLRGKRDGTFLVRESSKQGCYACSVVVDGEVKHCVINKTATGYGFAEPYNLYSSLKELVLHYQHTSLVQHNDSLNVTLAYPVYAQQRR

## COc1ncc(N2CCOCC2)cc1S(=O)(=O)Nc1ccnc(-c2ccc(CN3C[C@@H](C)O[C@@H](C)C3)cc2F)c1 [Example 36, Rac-N-(2-(4-(((2S,6R)-2,6-dimethylmorpholino)methyl)-2-fluorophenyl)pyridin-4-yl)-2-methoxy-5-morpholinopyridine-3-sulfonamide]
  IC50: ≤ 3.16 nM

## CCOc1ncc(N2CCOCC2)cc1S(=O)(=O)Nc1ccnc(-c2ccc(CN3C[C@@H](C)O[C@@H](C)C3)cc2F)c1 [Example 37, Rac-N-(2-(4-(((2S,6R)-2,6-dimethylmorpholino)methyl)-2-fluorophenyl)pyridin-4-yl)-2-ethoxy-5-morpholinopyridine-3-sulfonamide]
  IC50: ≤ 3.16 nM

## COc1ncc(N2CCOCC2)cc1S(=O)(=O)Nc1ccnc(-c2ccc(CN3CCN(C(C)C)CC3)c(F)c2)c1 [Example 5, N-(2-(3-Fluoro-4-((4-isopropylpiperazin-1-yl)methyl)phenyl)pyridin-4-yl)-2-methoxy-5-morpholinopyridine-3-sulfonamide]
  IC50: ≤ 3.16 nM

## COc1ncc(N2CCOCC2)cc1S(=O)(=O)Nc1ccnc(-c2ccc(CN3CCN(C(C)C)CC3)cc2F)c1 [Example 1, N-(2-(2-Fluoro-4-((4-isopropylpiperazin-1-yl)methyl)phenyl)pyridin-4-yl)-2-methoxy-5-morpholinopyridine-3-sulfonamide]
  IC50: 1 nM and ≤ 3.16 nM

## COc1ncc(N2CCOCC2)cc1S(=O)(=O)Nc1ccnc(-c2ccc(CN3CCN(C4COC4)CC3)cc2)c1 [Example 13]
  IC50: ≤ 3.16 nM

## CCC(C)N1CCN(Cc2ccc(-c3cc(NS(=O)(=O)c4cc(N5CCOCC5)cnc4OC)ccn3)cc2)CC1 (stereo not shown) [Example 9]
  IC50: ≤ 3.16 nM

## COc1ncc(N2CCOCC2)cc1S(=O)(=O)Nc1ccnc(-c2ccc(CN3CCN(C(C)C)CC3)c(F)c2F)c1 [Example 14, N-(2-(2,3-Difluoro-4-((4-isopropylpiperazin-1-yl)methyl)phenyl)pyridin-4-yl)-2-methoxy-5-morpholinopyridine-3-sulfonamide]
  IC50: ≤ 3.16 nM

## COc1ncc(N2CCOCC2)cc1S(=O)(=O)Nc1ccnc(-c2ccc(CN3CCN(C(C)(C)C)CC3)cc2F)c1 [Example 2, N-(2-(4-((4-(tert-Butyl)piperazin-1-yl)methyl)-2-fluorophenyl)pyridin-4-yl)-2-methoxy-5-morpholinopyridine-3-sulfonamide]
  IC50: ≤ 3.16 nM

## COCCN1CCN(Cc2ccc(-c3cc(NS(=O)(=O)c4cc(N5CCOCC5)cnc4OC)ccn3)c(F)c2)CC1 [Example 18, N-(2-(2-Fluoro-4-((4-(2-methoxyethyl)piperazin-1-yl)methyl)phenyl)pyridin-4-yl)-2-methoxy-5-morpholinopyridine-3-sulfonamide, 1.2 formic acid salt]
  IC50: ≤ 3.16 nM

## COc1ncc(N2CCOCC2)cc1S(=O)(=O)Nc1ccnc(-c2ccc(CN3CCNCC3)cc2F)c1 [Example 25, N-(2-(2-Fluoro-4-(piperazin-1-ylmethyl)phenyl)pyridin-4-yl)-2-methoxy-5-morpholinopyridine-3-sulfonamide]
  IC50: ≤ 3.16 nM

## COc1ncc(N2CCOCC2)cc1S(=O)(=O)Nc1ccnc(-c2ccc(CN3CCCCC3)cc2F)c1 [Example 21, N-(2-(2-fluoro-4-(piperidin-1-ylmethyl)phenyl)pyridin-4-yl)-2-methoxy-5-morpholinopyridine-3-sulfonamide]
  IC50: ≤ 3.16 nM

## COc1ncc(N2CCOCC2)cc1S(=O)(=O)Nc1ccnc(-c2ccc(CN3CCN(C4CCC4)CC3)cc2)c1 [Example 7]
  IC50: ≤ 3.16 nM

## COc1ncc(N2CCOCC2)cc1S(=O)(=O)Nc1ccnc(-c2ccc(CN3CCN(C(C)C)CC3)cc2)c1 [Example 3, N-(2-(4-((4-Isopropylpiperazin-1-yl)methyl)phenyl)pyridin-4-yl)-2-methoxy-5-morpholinopyridine-3-sulfonamide]
  IC50: ≤ 3.16 nM

## COc1ncc(N2CCOCC2)cc1S(=O)(=O)Nc1ccnc(-c2ccc(CN3CCC(C(C)(C)O)CC3)cc2F)c1 [Example 22]
  IC50: ≤ 3.16 nM

## CN(C)c1ncc(N2CCOCC2)cc1S(=O)(=O)Nc1ccnc(-c2ccc(CN3CCN(C(C)(C)C)CC3)cc2F)c1 [Example 27, N-(2-(4-((4-(tert-Butyl)piperazin-1-yl)methyl)-2-fluorophenyl)pyridin-4-yl)-2-(dimethylamino)-5-morpholinopyridine-3-sulfonamide]
  IC50: ≤ 3.16 nM

## COc1ncc(N2CCOCC2)cc1S(=O)(=O)Nc1ccnc(-c2c(F)cc(CN3CCN(C(C)C)CC3)cc2F)c1 [Example 8, N-(2-(2,6-Difluoro-4-((4-isopropylpiperazin-1-yl)methyl)phenyl)pyridin-4-yl)-2-methoxy-5-morpholinopyridine-3-sulfonamide]
  IC50: ≤ 3.16 nM

## COc1ncc(N2CCOCC2)cc1S(=O)(=O)Nc1ccnc(-c2cc(F)c(CN3CCN(C(C)C)CC3)c(F)c2)c1 [Example 12, N-(2-(3,5-Difluoro-4-((4-isopropylpiperazin-1-yl)methyl)phenyl)pyridin-4-yl)-2-methoxy-5-morpholinopyridine-3-sulfonamide]
  IC50: ≤ 3.16 nM

## CC(C)N1CCN(Cc2ccc(-c3cc(NS(=O)(=O)c4cc(N5CCOCC5)cnc4N(C)C)ccn3)c(F)c2)CC1 [Example 26, 2-(Dimethylamino)-N-(2-(2-fluoro-4-((4-isopropylpiperazin-1-yl)methyl)phenyl)pyridin-4-yl)-5-morpholinopyridine-3-sulfonamide]
  IC50: ≤ 3.16 nM

## COc1ncc(N2CCOCC2)cc1S(=O)(=O)Nc1ccnc(-c2cc(Cl)c(CN3CCN(C(C)C)CC3)cc2F)c1 [Example 35, N-(2-(5-Chloro-2-fluoro-4-((4-isopropylpiperazin-1-yl)methyl)phenyl)pyridin-4-yl)-2-methoxy-5-morpholinopyridine-3-sulfonamide]
  IC50: ≤ 3.16 nM

## COc1ncc(N2CCOCC2)cc1S(=O)(=O)Nc1ccnc(-c2ccc(CN3CCC(C)C3)cc2F)c1 (stereo not shown) [Example 19, N-(2-(2-fluoro-4-((3-methylpyrrolidin-1-yl)methyl)phenyl)pyridin-4-yl)-2-methoxy-5-morpholinopyridine-3-sulfonamide]
  IC50: ≤ 3.16 nM

## COc1ncc(N2CCOCC2)cc1S(=O)(=O)Nc1ccnc(-c2ccc(CN3CCOCC3)cc2)c1 [Example 24, 2-Methoxy-5-morpholino-N-(2-(4-(morpholinomethyl)phenyl)pyridin-4-yl)pyridine-3-sulfonamide]
  IC50: ≤ 3.16 nM

## COc1ncc(N2CCOCC2)cc1S(=O)(=O)Nc1ccnc(-c2ccc(CN3CCN(C4COC4)CC3)cc2F)c1 [Example 15, N-(2-(2-Fluoro-4-((4-(oxetan-3-yl)piperazin-1-yl)methyl)phenyl)pyridin-4-yl)-2-methoxy-5-morpholinopyridine-3-sulfonamide, 3 formic acid salt]
  IC50: ≤ 3.16 nM

## COc1ncc(N2CCOCC2)cc1S(=O)(=O)Nc1ccnc(-c2cc(F)c(CN3CCN(C(C)C)CC3)cc2F)c1 [Example 17, N-(2-(2,5-Difluoro-4-((4-isopropylpiperazin-1-yl)methyl)phenyl)pyridin-4-yl)-2-methoxy-5-morpholinopyridine-3-sulfonamide]
  IC50: ≤ 3.16 nM

## COc1ncc(N2CCOCC2)cc1S(=O)(=O)Nc1ccnc(-c2ccc(CN3CCN(C(C)(C)C)CC3)cc2)c1 [Example 6, N-(2-(4-((4-(tert-Butyl)piperazin-1-yl)methyl)phenyl)pyridin-4-yl)-2-methoxy-5-morpholinopyridine-3-sulfonamide]
  IC50: ≤ 3.16 nM

## COc1ncc(N2CCOCC2)cc1S(=O)(=O)Nc1ccnc(-c2ccc(CN3C[C@@H](C)O[C@@H](C)C3)cc2)c1 [Example 23, N-(2-(4-(((cis)-2,6-Dimethylmorpholino)methyl)phenyl)pyridin-4-yl)-2-methoxy-5-morpholinopyridine-3-sulfonamide]
  IC50: ≤ 3.16 nM
